Experimental data as given in ChEMBL document CHEMBL5465560, “Selectivity Literature for EUbOPEN Chemogenomic Library” (2024).

Legend:
[1] = molecular target: T1, Cyclin-dependent kinase 11A (Homo sapiens) (UniProt Q9UQ88); experiment: Selectivity interaction (KinomeScan (DiscoverX)) EUB0000618a CDK11A; details: at 10 µM
T1 sequence (whole entry): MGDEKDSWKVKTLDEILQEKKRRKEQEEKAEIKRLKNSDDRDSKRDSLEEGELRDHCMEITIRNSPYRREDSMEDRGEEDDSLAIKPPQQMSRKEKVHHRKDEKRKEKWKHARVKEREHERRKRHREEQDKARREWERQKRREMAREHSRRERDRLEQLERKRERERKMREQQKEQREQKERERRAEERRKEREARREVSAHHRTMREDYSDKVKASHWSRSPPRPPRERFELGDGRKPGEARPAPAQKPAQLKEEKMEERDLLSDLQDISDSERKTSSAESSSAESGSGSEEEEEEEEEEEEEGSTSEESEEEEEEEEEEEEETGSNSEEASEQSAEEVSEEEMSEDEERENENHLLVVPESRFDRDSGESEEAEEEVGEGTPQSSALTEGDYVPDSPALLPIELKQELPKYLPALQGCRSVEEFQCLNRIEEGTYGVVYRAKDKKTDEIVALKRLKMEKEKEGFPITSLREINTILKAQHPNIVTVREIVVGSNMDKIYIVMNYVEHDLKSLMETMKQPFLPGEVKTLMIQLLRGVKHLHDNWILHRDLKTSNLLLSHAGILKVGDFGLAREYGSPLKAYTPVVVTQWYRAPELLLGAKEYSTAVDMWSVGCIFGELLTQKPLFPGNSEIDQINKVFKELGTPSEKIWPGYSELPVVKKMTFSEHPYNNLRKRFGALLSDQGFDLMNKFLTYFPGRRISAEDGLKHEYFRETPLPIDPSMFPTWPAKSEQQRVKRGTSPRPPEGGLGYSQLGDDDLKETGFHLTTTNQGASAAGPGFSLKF

[2] = molecular target: Ribosomal protein S6 kinase alpha-5 (Homo sapiens) (UniProt O75582); experiment: Selectivity interaction (KinomeScan (DiscoverX)) EUB0000045b RPS6KA5; details: at 10 µM
[3] = molecular target: Tyrosine-protein kinase JAK1 (Homo sapiens, UniProt P23458); experiment: Selectivity interaction (Antiproliferative activity against Tel-kinase transformed Ba/F3 cell line) EUB0000045b JAK1; type: cell-based; details: BaF3
[4] = molecular target: T2, Protein kinase C iota type (Homo sapiens) (UniProt P41743); details: at 10 µM
T2 sequence (whole entry): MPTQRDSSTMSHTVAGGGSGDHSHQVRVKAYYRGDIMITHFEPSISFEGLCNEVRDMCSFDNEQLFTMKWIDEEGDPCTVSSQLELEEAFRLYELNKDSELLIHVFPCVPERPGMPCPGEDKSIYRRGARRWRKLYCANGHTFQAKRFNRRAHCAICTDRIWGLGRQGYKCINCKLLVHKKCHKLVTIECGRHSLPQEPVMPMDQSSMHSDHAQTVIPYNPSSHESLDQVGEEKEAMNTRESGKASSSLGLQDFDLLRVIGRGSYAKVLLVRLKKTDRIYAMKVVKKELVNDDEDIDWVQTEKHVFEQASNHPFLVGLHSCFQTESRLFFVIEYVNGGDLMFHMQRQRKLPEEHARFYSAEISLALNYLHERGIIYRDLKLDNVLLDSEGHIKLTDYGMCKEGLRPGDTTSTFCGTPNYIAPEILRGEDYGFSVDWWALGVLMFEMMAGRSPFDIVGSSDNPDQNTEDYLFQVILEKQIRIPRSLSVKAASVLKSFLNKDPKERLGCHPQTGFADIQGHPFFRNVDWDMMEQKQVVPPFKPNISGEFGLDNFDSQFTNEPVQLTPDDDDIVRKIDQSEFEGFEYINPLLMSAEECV

[5] = molecular target: T3, Serine/threonine-protein kinase STK11 (Homo sapiens) (UniProt Q15831); experiment: Selectivity interaction (KinomeScan (DiscoverX)) EUB0001049a STK11; details: at 1 µM
T3 sequence (whole entry): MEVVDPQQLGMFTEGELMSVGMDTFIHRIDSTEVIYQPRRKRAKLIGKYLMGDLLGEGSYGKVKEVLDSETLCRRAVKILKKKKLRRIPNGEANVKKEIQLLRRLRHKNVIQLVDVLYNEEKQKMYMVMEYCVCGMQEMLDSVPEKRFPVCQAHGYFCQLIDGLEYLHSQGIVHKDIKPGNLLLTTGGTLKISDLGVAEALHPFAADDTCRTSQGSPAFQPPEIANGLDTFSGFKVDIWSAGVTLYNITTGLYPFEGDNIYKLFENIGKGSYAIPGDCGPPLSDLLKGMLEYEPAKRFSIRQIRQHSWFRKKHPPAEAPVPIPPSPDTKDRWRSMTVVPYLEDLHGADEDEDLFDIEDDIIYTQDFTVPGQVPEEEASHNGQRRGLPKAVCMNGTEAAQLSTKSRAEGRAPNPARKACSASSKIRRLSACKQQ

[6] = molecular target: Serine/threonine-protein kinase 32C (Homo sapiens) (UniProt Q86UX6); experiment: Selectivity interaction (KinomeScan (DiscoverX)) EUB0001049a STK32C; details: at 1 µM
[7] = molecular target: T4, Myotonin-protein kinase (Homo sapiens) (UniProt Q09013); experiment: Selectivity interaction (KinomeScan (DiscoverX)) EUB0000666a DMPK; details: at 10 µM
T4 sequence (whole entry): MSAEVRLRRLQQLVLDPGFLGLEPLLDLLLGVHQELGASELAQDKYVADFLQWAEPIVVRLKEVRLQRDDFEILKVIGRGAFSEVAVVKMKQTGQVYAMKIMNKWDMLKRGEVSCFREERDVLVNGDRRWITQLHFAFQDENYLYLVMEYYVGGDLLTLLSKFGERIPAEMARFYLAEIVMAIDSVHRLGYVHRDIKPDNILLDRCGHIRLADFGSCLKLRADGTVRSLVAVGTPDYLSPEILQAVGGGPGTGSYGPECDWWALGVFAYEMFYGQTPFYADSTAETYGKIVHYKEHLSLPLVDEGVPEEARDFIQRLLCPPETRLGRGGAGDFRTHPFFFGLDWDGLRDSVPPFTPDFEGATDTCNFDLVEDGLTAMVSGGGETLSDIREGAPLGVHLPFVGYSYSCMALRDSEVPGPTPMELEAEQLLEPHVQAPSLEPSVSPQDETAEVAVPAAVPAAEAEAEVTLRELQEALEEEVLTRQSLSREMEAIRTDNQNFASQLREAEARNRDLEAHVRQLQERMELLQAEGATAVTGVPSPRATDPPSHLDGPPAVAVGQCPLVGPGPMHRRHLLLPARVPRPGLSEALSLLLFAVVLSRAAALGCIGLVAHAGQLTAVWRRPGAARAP

Chain of Tyrosine-protein kinase JAK1 (P23458 whole entry): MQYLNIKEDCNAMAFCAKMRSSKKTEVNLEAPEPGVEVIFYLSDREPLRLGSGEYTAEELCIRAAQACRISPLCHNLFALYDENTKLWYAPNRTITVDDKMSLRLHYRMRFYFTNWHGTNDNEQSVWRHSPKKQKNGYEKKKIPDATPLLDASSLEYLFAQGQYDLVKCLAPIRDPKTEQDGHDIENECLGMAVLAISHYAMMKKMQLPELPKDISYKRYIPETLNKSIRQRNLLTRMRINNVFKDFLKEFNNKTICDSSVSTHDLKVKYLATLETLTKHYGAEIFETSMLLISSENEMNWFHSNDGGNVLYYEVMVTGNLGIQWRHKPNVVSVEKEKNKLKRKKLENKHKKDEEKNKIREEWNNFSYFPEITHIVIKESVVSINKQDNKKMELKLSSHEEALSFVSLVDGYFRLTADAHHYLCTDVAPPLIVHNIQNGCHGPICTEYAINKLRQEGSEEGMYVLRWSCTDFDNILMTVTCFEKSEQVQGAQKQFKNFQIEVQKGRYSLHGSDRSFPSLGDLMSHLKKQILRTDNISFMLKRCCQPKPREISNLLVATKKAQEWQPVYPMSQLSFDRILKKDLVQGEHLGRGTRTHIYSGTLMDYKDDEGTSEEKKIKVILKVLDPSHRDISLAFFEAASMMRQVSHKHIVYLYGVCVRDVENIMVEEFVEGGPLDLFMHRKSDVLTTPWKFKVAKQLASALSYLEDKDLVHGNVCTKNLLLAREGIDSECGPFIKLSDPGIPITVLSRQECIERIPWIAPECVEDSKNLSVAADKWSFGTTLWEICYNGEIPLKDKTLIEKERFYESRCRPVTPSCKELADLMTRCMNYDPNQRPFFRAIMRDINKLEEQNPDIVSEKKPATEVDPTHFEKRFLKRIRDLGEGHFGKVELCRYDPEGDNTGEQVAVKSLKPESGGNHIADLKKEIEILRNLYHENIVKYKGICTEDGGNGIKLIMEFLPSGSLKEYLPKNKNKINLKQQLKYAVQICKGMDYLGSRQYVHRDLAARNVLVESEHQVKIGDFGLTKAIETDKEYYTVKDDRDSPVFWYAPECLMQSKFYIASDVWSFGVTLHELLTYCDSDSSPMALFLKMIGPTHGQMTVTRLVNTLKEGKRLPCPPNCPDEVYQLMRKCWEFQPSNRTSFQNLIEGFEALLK
Chain of Ribosomal protein S6 kinase alpha-5 (Homo sapiens) (O75582 whole entry, looked up): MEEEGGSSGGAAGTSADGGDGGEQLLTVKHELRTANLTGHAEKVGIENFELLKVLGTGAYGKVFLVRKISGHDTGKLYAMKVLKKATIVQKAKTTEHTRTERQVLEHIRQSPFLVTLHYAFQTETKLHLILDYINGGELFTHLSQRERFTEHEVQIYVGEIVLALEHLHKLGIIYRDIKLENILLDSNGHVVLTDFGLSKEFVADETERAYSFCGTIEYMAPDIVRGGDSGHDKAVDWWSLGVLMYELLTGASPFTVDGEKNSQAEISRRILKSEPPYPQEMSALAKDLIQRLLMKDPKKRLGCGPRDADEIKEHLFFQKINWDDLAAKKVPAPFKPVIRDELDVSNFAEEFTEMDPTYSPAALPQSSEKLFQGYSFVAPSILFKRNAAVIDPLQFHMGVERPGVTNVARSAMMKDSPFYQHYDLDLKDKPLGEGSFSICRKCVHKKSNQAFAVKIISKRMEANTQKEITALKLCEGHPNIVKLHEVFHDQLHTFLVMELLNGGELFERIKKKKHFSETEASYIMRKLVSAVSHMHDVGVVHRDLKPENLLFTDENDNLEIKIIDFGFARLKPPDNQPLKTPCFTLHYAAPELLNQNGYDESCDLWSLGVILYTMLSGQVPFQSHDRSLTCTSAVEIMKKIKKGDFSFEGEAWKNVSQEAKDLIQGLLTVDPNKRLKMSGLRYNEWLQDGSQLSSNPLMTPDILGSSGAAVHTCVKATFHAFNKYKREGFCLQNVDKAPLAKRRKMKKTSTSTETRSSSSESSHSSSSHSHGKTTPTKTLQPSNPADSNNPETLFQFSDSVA
Chain of Serine/threonine-protein kinase 32C (Homo sapiens) (Q86UX6 whole entry): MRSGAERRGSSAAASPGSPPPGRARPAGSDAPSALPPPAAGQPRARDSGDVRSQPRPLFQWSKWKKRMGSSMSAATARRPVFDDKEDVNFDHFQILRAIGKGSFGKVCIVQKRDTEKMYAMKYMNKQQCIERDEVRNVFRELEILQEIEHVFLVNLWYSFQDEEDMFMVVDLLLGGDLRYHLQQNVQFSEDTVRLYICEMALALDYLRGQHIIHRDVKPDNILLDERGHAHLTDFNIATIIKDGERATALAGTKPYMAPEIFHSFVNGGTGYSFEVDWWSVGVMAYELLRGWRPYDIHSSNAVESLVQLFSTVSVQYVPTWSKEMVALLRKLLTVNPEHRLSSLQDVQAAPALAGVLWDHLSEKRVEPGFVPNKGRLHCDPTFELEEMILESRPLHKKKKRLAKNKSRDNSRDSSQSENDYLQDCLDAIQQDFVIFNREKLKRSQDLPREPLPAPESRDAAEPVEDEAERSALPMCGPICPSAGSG

O[C@H]1CC[C@H](Nc2ncc3nc(Nc4c(F)cc(F)cc4F)n([C@H]4CCOC4)c3n2)CC1
% of control [1]: 98%

C=CC(=O)Nc1cc(-n2c(=O)ccc3cnc4ccc(-c5ccc(NS(C)(=O)=O)cc5)cc4c32)ccc1C
% of control [2]: 80%
GIC50 [3]: 4.92 µM

Cc1cc([C@@H](C)Nc2ccccc2C(=O)O)c2nc(N3CCOCC3)cc(=O)n2c1 [AZD-6482]
% of control [4]: 100%

COc1cc(Nc2nc(C)cc(-c3cnn4nc(OC)ccc34)n2)cc(C(F)(F)F)c1
% of control [5]: 100%
% of control [6]: 87%

O=C(NOC[C@H](O)CO)c1ccc(F)c(F)c1Nc1ccc(I)cc1F
% of control [7]: 90%
